Experimental data: BindingDB's records for PubMed 27409354 (n/a, 2016)

Test: Binding affinity to CypD (unknown origin)

Ki: 2000 nM
Structure (SMILES): O=C(Nc1ccc2nc(-c3ccco3)c(-c3ccco3)nc2c1)N1CCCC1
